Literature values, collected in US8877755B2, “Dopamine-agonist combination therapy for improving sleep quality” (priority 2004, dated 2014).
Where a name gives a salt, the structure may show the parent alone. Read-outs that look alike come from different tables or passages of the source.

Tests used:
[1] = mice; behavioral depression score <40
[2] = following oral administration
[3] = in vivo
GABA uptake system = test system: GABA uptake system; parameters: dose or concentration left out as unconfirmed
[4] = biological target: GABA:2-oxo-glutarate aminotransferase (Homo sapiens, UniProt P80404); conditions: at 10^−3 M
GABA:2-oxo-glutarate aminotransferase, sequence (P80404 29-500): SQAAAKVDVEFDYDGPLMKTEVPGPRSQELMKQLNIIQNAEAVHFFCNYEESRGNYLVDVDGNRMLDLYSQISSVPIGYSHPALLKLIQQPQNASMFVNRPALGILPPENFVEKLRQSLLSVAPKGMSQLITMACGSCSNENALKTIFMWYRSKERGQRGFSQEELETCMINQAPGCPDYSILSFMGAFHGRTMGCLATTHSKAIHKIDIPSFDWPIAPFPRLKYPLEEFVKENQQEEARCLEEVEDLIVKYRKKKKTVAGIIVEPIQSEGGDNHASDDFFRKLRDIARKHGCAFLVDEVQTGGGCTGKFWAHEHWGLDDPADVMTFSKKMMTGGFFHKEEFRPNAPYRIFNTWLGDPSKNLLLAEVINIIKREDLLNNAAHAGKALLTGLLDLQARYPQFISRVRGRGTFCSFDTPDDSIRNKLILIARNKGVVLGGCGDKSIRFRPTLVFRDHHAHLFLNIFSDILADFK

[5] = test system: L-glutamate 1-carboxylase; conditions: at 10^−3 M
[6] = primates, multiple doses for up to four days
[7] = in vivo; remark: listed apart in the source
[8] = in vivo; remark: listed apart in the source
[9] = not given; remark: listed apart in the source
[10] = not given; remark: listed apart in the source
[11] = L-dopa 100 mg with carbidopa 10 mg, in most cases
[12] = not given; remark: listed apart in the source

In the case of `CCC1(c2ccccc2)CCC(=O)NC1=O` (centres unmarked) [glutethimide], the ED100 [1] is given as 300 mg/kg.
For `CCCC(C)C1(CC)C(=O)NC(=O)NC1=O` (centres unmarked) [pentobarbital], the ED100 [1] is given as 100 mg/kg.
In the case of `CCN(C(C)=O)c1cccc(-c2ccnc3c(C#N)cnn23)c1` [Zaleplon, N-[3-(3-cyanopyrazolo[1,5-a]pyrimidin-7-yl)phenyl]-N-ethylacetamide], the “time to peak plasma concentration” value [2] is given as 1 h.
For `CN1CCc2cccc3c2[C@H]1Cc1ccc(O)c(O)c1-3` [apomorphine, (R)-5,6,6a,7-tetrahydro-6-methyl-4H-dibenzo-[de,g]quinoline-10,11-diol], the “tolerated dose, continuous infusion” value (continuous infusion for 14 days) is given as 420 µg/kg/h and the “minimally lethal dose, continuous infusion” value (over the course of the 14 day study) is given as 1,500 μg/kg/hr.
For `CN1C(=O)CN=C(c2ccccc2)c2cc(Cl)ccc21` [diazepam], the ED100 [1] is listed as 50 mg/kg.
In the case of `Cc1ccc(-c2nc3ccc(C)cn3c2CC(=O)N(C)C)cc1` [zolpidem, N,N,6-trimethyl-2-(4-methylphenyl)-imidazo[1,2-s]pyridine-3-acetamide], the “elimination half-life (mean)” value [3] is listed as 2.4 h.
For `Oc1noc2c1CCNC2` [gaboxadol, 4,5,6,7-tetrahydroisoxazolo[5,4-c]pyridin-3-ol], the “interaction with GABA uptake system” value (GABA uptake system) is listed as “did not interact”, the “interaction with GABA:2-oxo-glutarate aminotransferase” value [4] is listed as “did not interact” and the “interaction with L-glutamate 1-carboxylase” value [5] is listed as “did not interact”.
In the case of `CN1CCc2cccc3c2[C@H]1Cc1ccc(O)c(O)c1-3` [apomorphine HCl], the “doses without major adverse effects” value [6] is given as 0.1 to 0.4 mg/kg and the tolerated dose (single bolus subcutaneous injection, mammals) is given as “up to 13 mg/kg”.
In the case of `O=C(CCCN1CCC(O)(c2ccc(Cl)cc2)CC1)c1ccc(F)cc1` [haloperidol], the ED100 [1] is given as 10 mg/kg.
In the case of `CCCC(C)(COC(N)=O)COC(N)=O` [meprobamate], the ED100 [1] is listed as 300 mg/kg.
In the case of `Oc1ccc(C2CNCCc3c2cc(O)c(O)c3Cl)cc1` (racemic) [racemic fenoldopam, 6-chloro-2,3,4,5-tetrahydro-1-(4-hydroxyphenyl)-1H-3-benzazepine-7,8-diol], the “average clearance (CL)” value [7] is given as 2.6 L/min and the “half-life (t1/2)” value [7] is given as 4.6 min.
In the case of `C=CCN1C[C@H](C(=O)N(CCCN(C)C)C(=O)NCC)C[C@@H]2c3cccc4[nH]cc(c34)C[C@H]21` [Cabergoline, 1-[(6-allylergolin-8β-yl)-carbonyl]-1-[3-(dimethylamino)propyl]-3-ethylurea], the half life [8] is given as at most 65 h.
In the case of `COC(=O)[C@H]1[C@H]2C[C@@H]3c4[nH]c5cc(OC)ccc5c4CCN3C[C@H]2C[C@@H](OC(=O)c2cc(OC)c(OC)c(OC)c2)[C@@H]1OC` [reserpine], the ED100 [1] is listed as 50 mg/kg.
In the case of `CN1C[C@@H](NS(=O)(=O)N(C)C)C[C@@H]2c3cccc4c3c(cn4C)C[C@H]21` [mesulergine, N′-(1,6-dimethylergolin-8α-yl)-N,N-dimethylsulfamide], the half-life in vivo [9] is given as “approximately 2 hr” and the “solubility in water” value ([10]; hydrochloride salt) is given as “soluble in water”.
In the case of `N[C@@H](Cc1ccc(O)c(O)c1)C(=O)O` [L-dopa], the “effect on RLS” value [11] is given as “completely suppresses RLS”.
In the case of `CC(=O)N(C)c1cccc(-c2ccnc3c(C(=O)c4cccs4)cnn23)c1` [Indiplon, N-methyl-N-(3-{3-[2-thienylcarbonyl]-pyrazolo-[1,5-a]-pyrimidin-7-yl}-phenyl)acetamide], the half-life in vivo [12] is listed as “approximately 1.3 hours” and the “resulting pH of water solution” value ([10]; at 20-30 μg/ml in water) is listed as “approximately 8.0”.
